Assay results: patent publication US20250295646A1, “METHODS OF USE OF T-TYPE CALCIUM CHANNEL MODULATORS” (Praxis Precision Medicines, Inc., priority 2022, published 2025)

Tested on: adult patients with essential tremor
Test: Essential tremor trial Example 16 Part B open-label titration phase: TETRAS, mADL, ADL efficacy
Type: in vivo, human
Parameters: reduction in upper limb tremor amplitude / LS mean reduction in upper limb tremor amplitude / reduction in combined upper limb tremor amplitude: concentration or dose not given beside the values
Conditions: for TETRAS ADL Score CFB LS Mean / TETRAS CULS Score CFB LS Mean / TETRAS PS Item 6: Archimedes Spiral (Left) Score CFB LS Mean / TETRAS PS Item 6: Archimedes Spiral (Right) Score CFB LS Mean / TETRAS PS Item 7: Handwriting Score CFB LS Mean / TETRAS PSTS Score CFB LS Mean / TETRAS ULS Score CFB LS Mean / TETRAS mADL (TETRAS modified total score) Score CFB LS Mean / TETRAS ADL CTA LS Mean % / TETRAS CULS CTA LS Mean % / TETRAS PS Item 6: Archimedes Spiral (Left) CTA LS Mean % / TETRAS PS Item 6: Archimedes Spiral (Right) CTA LS Mean % / TETRAS PS Item 7: Handwriting CTA LS Mean % / TETRAS PSTS CTA LS Mean % / TETRAS ULS CTA LS Mean % / TETRAS mADL CTA LS Mean %: Part B - OLT, FAS; for TETRAS ADL Score CFB LS Mean / TETRAS CULS Score CFB LS Mean / TETRAS PS Item 6: Archimedes Spiral (Left) Score CFB LS Mean / TETRAS PS Item 6: Archimedes Spiral (Right) Score CFB LS Mean / TETRAS PS Item 7: Handwriting Score CFB LS Mean / TETRAS PSTS Score CFB LS Mean / TETRAS ULS Score CFB LS Mean / TETRAS mADL (TETRAS modified total score) Score CFB LS Mean: change from pre-dose baseline; for TETRAS ADL CTA LS Mean % / TETRAS CULS CTA LS Mean % / TETRAS PS Item 6: Archimedes Spiral (Left) CTA LS Mean % / TETRAS PS Item 6: Archimedes Spiral (Right) CTA LS Mean % / TETRAS PS Item 7: Handwriting CTA LS Mean % / TETRAS PSTS CTA LS Mean % / TETRAS ULS CTA LS Mean % / TETRAS mADL CTA LS Mean %: from pre-dose baseline; for TETRAS ADL score, LS mean change from pre-dose baseline / TETRAS combined upper limb score, LS mean change from pre-dose baseline / TETRAS upper limb score, LS mean change from pre-dose baseline / mADL score, LS mean change from pre-dose baseline / reduction in combined upper limb tremor amplitude / reduction in upper limb tremor amplitude / ADL, LS mean change from pre-dose baseline / LS mean reduction in upper limb tremor amplitude / mADL, LS mean change from pre-dose baseline: Part B OLT
Experimental: A two part trial (Part A and Part B as described below) was conducted to study the efficacy, safety, tolerability, and pharmacokinetics of the compound of formula (I) in adult patients with essential tremor (ET).
Participants were males and females ages 18 and older with a clinical diagnosis of ET. Participants who have a history of any other medical, neurological, or psychiatric condition that may explain or cause tremor were excluded. Participants who have previously received treatment with formula (I) in any clinical trial (including Part A of the current trial for participants enrolling in Part B) were also excluded.
In Part B, an open label titration phase and a randomized, double-blind, placebo-controlled trial was conducted. […] During the withdrawal phase, patients either continued receiving formula (I) at their current dose or switched to placebo, depending on the randomization, for 14 days (Day 43 to Day 56).

[1] = Day 7, subset with baseline upper limb scores ≥10
[2] = Day 21, subset with baseline upper limb scores ≥10

CC(C)(C)NC(=O)CN1CCC(CNC(=O)c2cc(F)cc(Cl)c2)CC1 [compound of formula (I), N-((1-(2-(tert-butylamino)-2-oxoethyl)piperidin-4-yl)methyl)-3-chloro-5-fluorobenzamide]
TETRAS ADL Score CFB LS Mean (Day 7): −1.986 | TETRAS CULS Score CFB LS Mean (Day 7): −0.909 | TETRAS PS Item 6: Archimedes Spiral (Left) Score CFB LS Mean (Day 7): 0.221 | TETRAS PS Item 6: Archimedes Spiral (Right) Score CFB LS Mean (Day 7): 0.006 | TETRAS PS Item 7: Handwriting Score CFB LS Mean (Day 7): −0.019 | TETRAS PSTS Score CFB LS Mean (Day 7): −1.253 | TETRAS ULS Score CFB LS Mean (Day 7): −0.967 | TETRAS mADL (TETRAS modified total score) Score CFB LS Mean (Day 7): −2.862 | TETRAS ADL CTA LS Mean % (Day 7): −7.29% | TETRAS CULS CTA LS Mean % (Day 7): −9.1% | TETRAS PS Item 6: Archimedes Spiral (Left) CTA LS Mean % (Day 7): 22.4% | TETRAS PS Item 6: Archimedes Spiral (Right) CTA LS Mean % (Day 7): 0.6% | TETRAS PS Item 7: Handwriting CTA LS Mean % (Day 7): −2.2% | TETRAS PSTS CTA LS Mean % (Day 7): −8.6% | TETRAS ULS CTA LS Mean % (Day 7): −16.9% | TETRAS mADL CTA LS Mean % (Day 7): −18.49% | TETRAS ADL Score CFB LS Mean (Day 21): −3.475 | TETRAS CULS Score CFB LS Mean (Day 21): −1.320 | TETRAS PS Item 6: Archimedes Spiral (Left) Score CFB LS Mean (Day 21): −0.012 | TETRAS PS Item 6: Archimedes Spiral (Right) Score CFB LS Mean (Day 21): −0.240 | TETRAS PS Item 7: Handwriting Score CFB LS Mean (Day 21): 0.107 | TETRAS PSTS Score CFB LS Mean (Day 21): −1.449 | TETRAS ULS Score CFB LS Mean (Day 21): −1.143 | TETRAS mADL (TETRAS modified total score) Score CFB LS Mean (Day 21): −2.812 | TETRAS ADL CTA LS Mean % (Day 21): −12.02% | TETRAS CULS CTA LS Mean % (Day 21): −12.9% | TETRAS PS Item 6: Archimedes Spiral (Left) CTA LS Mean % (Day 21): −1.3% | TETRAS PS Item 6: Archimedes Spiral (Right) CTA LS Mean % (Day 21): −24.2% | TETRAS PS Item 7: Handwriting CTA LS Mean % (Day 21): 11.5% | TETRAS PSTS CTA LS Mean % (Day 21): −9.9% | TETRAS ULS CTA LS Mean % (Day 21): −19.7% | TETRAS mADL CTA LS Mean % (Day 21): −14.31% | TETRAS ADL Score CFB LS Mean (Day 42, 6 hours post-dose): −8.207 | TETRAS CULS Score CFB LS Mean (Day 42, 6 hours post-dose): −1.882 | TETRAS PS Item 6: Archimedes Spiral (Left) Score CFB LS Mean (Day 42, 6 hours post-dose): −0.072 | TETRAS PS Item 6: Archimedes Spiral (Right) Score CFB LS Mean (Day 42, 6 hours post-dose): −0.239 | TETRAS PS Item 7: Handwriting Score CFB LS Mean (Day 42, 6 hours post-dose): −0.054 | TETRAS PSTS Score CFB LS Mean (Day 42, 6 hours post-dose): −2.771 | TETRAS ULS Score CFB LS Mean (Day 42, 6 hours post-dose): −2.090 | TETRAS mADL (TETRAS modified total score) Score CFB LS Mean (Day 42, 6 hours post-dose): −6.669 | TETRAS ADL CTA LS Mean % (Day 42, 6 hours post-dose): −29.59% | TETRAS CULS CTA LS Mean % (Day 42, 6 hours post-dose): −17.9% | TETRAS PS Item 6: Archimedes Spiral (Left) CTA LS Mean % (Day 42, 6 hours post-dose): −8.0% | TETRAS PS Item 6: Archimedes Spiral (Right) CTA LS Mean % (Day 42, 6 hours post-dose): −24.1% | TETRAS PS Item 7: Handwriting CTA LS Mean % (Day 42, 6 hours post-dose): −6.0% | TETRAS PSTS CTA LS Mean % (Day 42, 6 hours post-dose): −18.1% | TETRAS ULS CTA LS Mean % (Day 42, 6 hours post-dose): −33.0% | TETRAS mADL CTA LS Mean % (Day 42, 6 hours post-dose): −42.04% | TETRAS ADL score, LS mean change from pre-dose baseline (Day 7): −1.986 | TETRAS combined upper limb score, LS mean change from pre-dose baseline (Day 7): −0.909 | TETRAS upper limb score, LS mean change from pre-dose baseline (Day 7): −0.967 | mADL score, LS mean change from pre-dose baseline (Day 7): −2.862 | reduction in combined upper limb tremor amplitude (Day 7): 9.1% | reduction in upper limb tremor amplitude (Day 7): 16.9% | ADL, LS mean change from pre-dose baseline [1]: −2.222 | LS mean reduction in upper limb tremor amplitude [1]: 22.9% | mADL, LS mean change from pre-dose baseline [1]: −3.011 | TETRAS ADL score, LS mean change from pre-dose baseline (Day 21): −3.475 | TETRAS combined upper limb score, LS mean change from pre-dose baseline (Day 21): −1.320 | TETRAS upper limb score, LS mean change from pre-dose baseline (Day 21): −1.143 | mADL score, LS mean change from pre-dose baseline (Day 21): −2.812 | reduction in combined upper limb tremor amplitude (Day 21): 12.9% | reduction in upper limb tremor amplitude (Day 21): 19.7% | ADL, LS mean change from pre-dose baseline [2]: −4.444 | LS mean reduction in upper limb tremor amplitude [2]: 26.7% | mADL, LS mean change from pre-dose baseline [2]: −3.773 | TETRAS ADL score, LS mean change from pre-dose baseline (Day 42): −8.207 | TETRAS combined upper limb score, LS mean change from pre-dose baseline (Day 42): −1.882 | TETRAS upper limb score, LS mean change from pre-dose baseline (Day 42): −2.090 | mADL score, LS mean change from pre-dose baseline (Day 42): −6.669 | reduction in combined upper limb tremor amplitude (Day 42): 17.9% | reduction in upper limb tremor amplitude (Day 42): 33.0%
